Measured values taken from article PMC7035970 (Cell chemical biology, 2019).
Converted amounts (≈) assume the structure as drawn.

What was measured:
[1] = tested on: M. tuberculosis strain mc^24914 (inhA promoter c(−15)t); assay: microbe, parasite or virus in culture; assay type: cell-based, Mycobacterium tuberculosis; settings: for MIC: Mycobacterium tuberculosis
[2] = tested on: M. tuberculosis strain JSF-Mtb-1 (fbiC F567S, inhA promoter c(−15)t); assay type: cell-based, Mycobacterium tuberculosis
[3] = tested on: M. tuberculosis strain ddn∷tn; assay: microbe, parasite or virus in culture; assay type: cell-based, Mycobacterium tuberculosis; settings: for MIC: Mycobacterium tuberculosis
[4] = tested on: M. tuberculosis strain DRM12 (katG S315T); assay type: cell-based, Mycobacterium tuberculosis
[5] = tested on: M. tuberculosis strain fgd1∷tn; assay: MIC versus F420H2 deficient strain fgd1∷tn; assay type: cell-based, Mycobacterium tuberculosis; settings: Mycobacterium tuberculosis
[6] = tested on: spontaneous M. tuberculosis JSF-2019 resistant mutant strains; assay type: cell-based, Mycobacterium tuberculosis
[7] = tested on: M. tuberculosis clinical strains TDR31, TDR36, and TDR116; assay type: cell-based, Mycobacterium tuberculosis
M. tuberculosis H37Rv = settings: introduction, no reference given; cited from earlier work

NNC(=O)c1ccncc1 [INH, reference compound]
MIC shift, mc^24914 (inhA overexpression) versus H37Rv [1]: 8 x
MIC [1]: 1.25 µM (≈ 0.171 µg/mL)
MIC [2]: 1.25 µM (≈ 0.171 µg/mL)
MIC [3]: 0.16 µM (≈ 0.0219 µg/mL)
MIC [4]: >10 µM
MIC shift / loss of efficacy, DRM12 (KatG S315T) versus H37Rv [4]: > 62 fold
MIC [5]: 0.16 µM (≈ 0.0219 µg/mL)
MIC [6]: 0.16 µM (≈ 0.0219 µg/mL)
MIC shift versus the parental strain H37Rv [6]: 8 x

O=[N+]([O-])c1ccc(/C=N/Nc2nc(Nc3ccccc3)nc(Nc3ccccc3)n2)o1 [JSF-2019, (E)-6-(2-((5-nitrofuran-2-yl)methylene)hydrazinyl)-N2,N4-diphenyl-1,3,5-triazine-2,4-diamine]
MIC shift, mc^24914 (inhA overexpression) versus H37Rv [1]: 8 x
MIC [1]: 0.63 µM (≈ 0.262 µg/mL)
MIC [2]: 5.0 µM (≈ 2.08 µg/mL)
MIC change, JSF-Mtb-1 versus H37Rv [2]: 64 x
loss of susceptibility, ddn∷tn versus wild type H37Rv [3]: 8 x
MIC [3]: 0.63 µM (≈ 0.262 µg/mL)
activity versus clinical isolates with the KatG S315T mutation [7]: maintained its wild type strain activity
MIC [4]: 0.078 µM (≈ 0.0325 µg/mL)
MIC shift / loss of efficacy, DRM12 (KatG S315T) versus H37Rv [4]: lack of an MIC shift
MIC [5]: 1.3 µM (≈ 0.541 µg/mL)

O=[N+]([O-])c1ccc(/C=N/Nc2nc(Nc3ccccc3)nc(N3CCOCC3)n2)o1 [JSF-2513, (E)-4-morpholino-6-(2-((5-nitrofuran-2-yl)methylene)hydrazineyl)-N-phenyl-1,3,5-triazin-2-amine]
MIC shift, mc^24914 (inhA overexpression) versus H37Rv [1]: four-fold
MIC [1]: 2.5 µM (≈ 1.03 µg/mL)
MIC [2]: 20 µM (≈ 8.21 µg/mL)
loss of susceptibility, ddn∷tn versus wild type H37Rv [3]: 2 x
MIC [3]: 1.3 µM (≈ 0.534 µg/mL)
MIC [4]: 0.63 µM (≈ 0.259 µg/mL)
MIC shift / loss of efficacy, DRM12 (KatG S315T) versus H37Rv [4]: lack of an MIC shift
MIC [5]: 10 µM (≈ 4.1 µg/mL)

O=[N+]([O-])c1cn2c(n1)OC[C@@H](OCc1ccc(OC(F)(F)F)cc1)C2 [Pretomanid, reference compound]
loss of potency from any one resistance mutation (M. tuberculosis H37Rv): ≥ 500 fold
MIC [1]: 0.16 µM (≈ 0.0575 µg/mL)
MIC [2]: >40 µM
loss of susceptibility, ddn∷tn versus wild type H37Rv [3]: > 1000 x
MIC [4]: 0.039 µM (≈ 0.014 µg/mL)
MIC [5]: > 40 µM

C[C@]1(COc2ccc(N3CCC(Oc4ccc(OC(F)(F)F)cc4)CC3)cc2)Cn2cc([N+](=O)[O-])nc2O1 [delamanid]
loss of potency from any one resistance mutation (M. tuberculosis H37Rv): ≥ 500 fold
